Test results as given in patent publication US6995182B2, “1-sulfonyl pyrrolidine derivatives” (Hoffmann-La Roche Inc., priority 2000, dated 2006).

target: T1, rat mGlu 1a receptor (Rattus norvegicus, UniProt P23385); test: [Ca2+]i measurements (FLIPR, Fluo-3 AM) on mGlu 1a transfected EBNA cells; assay type: cell-based; details: rat mGlu 1a receptor transiently transfected into EBNA cells, agonist activity
T1 construct: expressed in transfected cells; host or cells: EBNA cells (transient transfection)
Procedure: The pharmacological activity of the compounds was tested using the following method: cDNA encoding rat mGlu 1a receptor was transiently transfected into EBNA cells using a procedure described by E.-J. Schlaeger and K. Christensen (Transient gene expression in mammalian cells grown in serum-free suspension culture; Cytotechnology, 15: 1–13, 1998). [Ca^2+]i measurements were performed on mGlu 1a transfected EBNA cells after incubation of the cells with Fluo-3 AM (0.5 μM final concentration) for 1 hour at 37° C. followed by 4 washes with assay buffer (DMEM supplemented with Hank's salt and 20 mM HEPES. [Ca^2+]i measurements were done using a fluorometric imaging plate reader (FLIPR, Molecular Devices Corporation, La Jolla, Calif., USA). When compounds were evaluated as antagonists they were tested against 10 μM glutamate as agonist.
The inhibition (antagonists) or activation (agonists) curves were fitted with a four parameter logistic equation giving EC50, IC50, and Hill coefficient using the iterative non linear curve fitting software Origin (Microcal Software Inc., Northampton, Mass., USA).

T1 sequence (P23385 19-1199): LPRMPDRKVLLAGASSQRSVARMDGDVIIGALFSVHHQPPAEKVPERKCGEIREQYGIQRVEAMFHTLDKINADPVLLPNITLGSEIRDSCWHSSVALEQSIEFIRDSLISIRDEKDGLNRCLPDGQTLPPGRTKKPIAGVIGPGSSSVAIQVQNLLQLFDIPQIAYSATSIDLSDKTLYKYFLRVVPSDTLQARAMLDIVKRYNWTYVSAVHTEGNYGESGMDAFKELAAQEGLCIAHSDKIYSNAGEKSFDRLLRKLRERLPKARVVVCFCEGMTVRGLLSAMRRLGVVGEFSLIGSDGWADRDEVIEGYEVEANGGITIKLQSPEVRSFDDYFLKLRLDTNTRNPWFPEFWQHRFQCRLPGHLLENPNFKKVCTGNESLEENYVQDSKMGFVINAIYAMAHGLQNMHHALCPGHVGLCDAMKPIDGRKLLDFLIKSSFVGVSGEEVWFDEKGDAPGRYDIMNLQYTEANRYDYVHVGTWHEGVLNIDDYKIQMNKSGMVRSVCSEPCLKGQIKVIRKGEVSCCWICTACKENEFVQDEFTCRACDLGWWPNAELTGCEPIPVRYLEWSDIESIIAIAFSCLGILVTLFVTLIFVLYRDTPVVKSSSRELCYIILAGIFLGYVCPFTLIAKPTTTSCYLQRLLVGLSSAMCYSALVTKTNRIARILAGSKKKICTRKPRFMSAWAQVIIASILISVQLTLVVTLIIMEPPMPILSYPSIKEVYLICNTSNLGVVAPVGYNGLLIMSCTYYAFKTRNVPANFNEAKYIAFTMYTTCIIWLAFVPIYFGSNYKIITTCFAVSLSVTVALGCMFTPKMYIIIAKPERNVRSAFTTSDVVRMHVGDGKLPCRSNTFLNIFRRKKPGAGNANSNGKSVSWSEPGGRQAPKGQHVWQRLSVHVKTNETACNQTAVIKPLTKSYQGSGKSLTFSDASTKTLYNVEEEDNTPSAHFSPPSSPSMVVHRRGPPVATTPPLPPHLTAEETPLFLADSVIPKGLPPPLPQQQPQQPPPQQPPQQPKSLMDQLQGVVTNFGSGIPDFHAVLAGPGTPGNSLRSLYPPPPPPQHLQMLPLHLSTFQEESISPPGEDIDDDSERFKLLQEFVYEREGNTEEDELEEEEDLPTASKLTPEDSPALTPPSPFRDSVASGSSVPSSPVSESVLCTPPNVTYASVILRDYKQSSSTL

SMILES | EC50 [µM]
Cc1ccc(S(=O)(=O)N2[C@@H](C#N)CC[C@H]2c2ccc(F)cc2)cc1 (racemic) [Example 4, (2RS,5SR)-5-(4-Fluoro-phenyl)-1-(toluene-4-sulfonyl)-pyrrolidine-2-carbonitrile] | 4.4
Cc1ccc(S(=O)(=O)N2[C@@H](CCl)CC[C@H]2c2ccc(F)cc2)cc1 (racemic) [Example 5, (2RS,5SR)-2-Chloromethyl-5-(4-fluoro-phenyl)-1-(toluene-4-sulfonyl)-pyrrolidine] | 1.4
Cc1ccc(S(=O)(=O)N2[C@@H](CNC(=O)C3CC3)CC[C@H]2c2ccc(F)cc2)cc1 (racemic) [Example 16, (2RS,5SR)-Cyclopropanecarboxylic acid [5-(4-fluoro-phenyl)-1-(toluene-4-sulfonyl)-pyrrolidin-2-yl-methyl]-amide] | 0.21
Cc1ccc(S(=O)(=O)N2[C@@H](Cc3noc(C)n3)CC[C@H]2c2ccc(F)cc2)cc1 (racemic) [Example 21, (2RS,5SR)-3-[5-(4-Fluoro-phenyl)-1-(toluene-4-sulfonyl)-pyrrolidin-2-yl-methyl]-5-methyl-[1,2,4]oxadiazole] | 0.63
Cc1ccc(S(=O)(=O)N2[C@@H](Cc3nnn(C)n3)CC[C@H]2c2ccc(F)cc2)cc1 (racemic) [Example 39, (2RS,5SR)-5-[5-(4-Fluoro-phenyl)-1-(toluene-4-sulfonyl)-pyrrolidin-2-yl-methyl]-2-methyl-2H-tetrazole] | 0.36
Cc1ccc(S(=O)(=O)N2[C@H](CCCNS(C)(=O)=O)CC[C@@H]2c2ccc(F)cc2)cc1 (racemic) [Example 77, (2RS,5RS)-N-{3-[5-(4-Fluoro-phenyl)-1-(toluene-4-sulfonyl)-pyrrolidin-2-yl]-propyl}-methanesulfonamide] | 0.16
Cc1ccc(S(=O)(=O)N2CCCC2CCCNC(=O)C2CC2)cc1 (racemic) [Example 87, (RS)-Cyclopropanecarboxylic acid {3-[1-(toluene-4-sulfonyl)-pyrrolidin-2-yl]-propyl}-amide] | 0.98
Cc1ccc(S(=O)(=O)N2C(CCCO)CC[C@H]2c2ccc(F)cc2)cc1 (stereo in doubt) [Example 64, (2S,5S)-3-[5-(4-Fluoro-phenyl)-1-(toluene-4-sulfonyl)-pyrrolidin-2-yl]-propan-1-ol] | 0.2

The next lines start with the values.

EC50 [µM] | SMILES
1.47 | Cc1ccc(S(=O)(=O)N2[C@@H](CCn3ncnn3)CC[C@H]2c2ccc(F)cc2)cc1 (racemic) [Example 101, (2RS,5SR)-2-{2-[5-(4-Fluoro-phenyl)-1-(toluene-4-sulfonyl)-pyrrolidin-2-yl]-ethyl}-2H-tetrazole]
1.28 | Cc1ccc(S(=O)(=O)N2[C@H](CCCc3nc(C)cc(C)n3)CC[C@@H]2c2ccc(F)cc2)cc1 (racemic) [Example 123, (2RS,5RS)-2-{3-[5-(4-Fluoro-phenyl)-1-(toluene-4-sulfonyl)-pyrrolidin-2-yl]-propyl}-4,6-dimethyl-pyrimidine]
1.24 | Cc1ccc(S(=O)(=O)N2[C@@H](c3nnco3)CC[C@H]2c2ccc(F)cc2)cc1 (racemic) [Example 137, (2RS,5SR)-2-[5-(4-Fluoro-phenyl)-1-(toluene-4-sulfonyl)-pyrrolidin-2-yl]-[1,3,4]oxadiazole]
0.35 | Cc1ccc(S(=O)(=O)N2[C@H](CCCCn3ncnn3)CC[C@@H]2c2ccc(F)cc2)cc1 (racemic) [Example 143, (2RS,5RS)-2-{4-[5-(4-Fluoro-phenyl)-1-(toluene-4-sulfonyl)-pyrrolidin-2-yl]-butyl}-2H-tetrazole]
0.22 | Cc1ccc(S(=O)(=O)N2[C@@H](CCCn3ccnc3)CC[C@H]2c2ccc(F)cc2)cc1 [Example 116, (2S,5S)-1-{3-[5-(4-Fluoro-phenyl)-1-(toluene-4-sulfonyl)-pyrrolidin-2-yl]-propyl}-1H-imidazole]

system: not given; test: not given; details: not given

SMILES | melting point [°C]
Cc1ccc(S(=O)(=O)N2[C@@H](C#N)CC[C@H]2c2ccc(F)cc2)cc1 (racemic) [Example 4, (2RS,5SR)-5-(4-Fluoro-phenyl)-1-(toluene-4-sulfonyl)-pyrrolidine-2-carbonitrile] | 128
Cc1ccc(S(=O)(=O)N2[C@@H](CCl)CC[C@H]2c2ccc(F)cc2)cc1 (racemic) [Example 5, (2RS,5SR)-2-Chloromethyl-5-(4-fluoro-phenyl)-1-(toluene-4-sulfonyl)-pyrrolidine] | 130
Cc1ccc(S(=O)(=O)N2[C@@H](CNC(=O)C3CC3)CC[C@H]2c2ccc(F)cc2)cc1 (racemic) [Example 16, (2RS,5SR)-Cyclopropanecarboxylic acid [5-(4-fluoro-phenyl)-1-(toluene-4-sulfonyl)-pyrrolidin-2-yl-methyl]-amide] | 154
Cc1ccc(S(=O)(=O)N2[C@H](CCCNS(C)(=O)=O)CC[C@@H]2c2ccc(F)cc2)cc1 (racemic) [Example 77, (2RS,5RS)-N-{3-[5-(4-Fluoro-phenyl)-1-(toluene-4-sulfonyl)-pyrrolidin-2-yl]-propyl}-methanesulfonamide] | 123
Cc1ccc(S(=O)(=O)N2C(C3=NOC(C)N3)CCC2c2ccc(F)cc2)cc1 (stereo not shown) [Example 28, 3-[5-(4-Fluoro-phenyl)-1-(toluene-4-sulfonyl)-pyrrolidin-2-yl]-5-methyl-4,5-dihydro-[1,2,4]oxadiazole] | 68
Cc1ccc(S(=O)(=O)N2[C@@H](CO)CC[C@H]2c2ccc(F)cc2)cc1 [Example 58, (2R,5S)-[5-(4-Fluoro-phenyl)-1-(toluene-4-sulfonyl)-pyrrolidin-2-yl]-methanol] | 140
Cc1ccc(S(=O)(=O)N2[C@@H](CCCO)CC[C@H]2c2ccc(F)cc2)cc1 [Example 64, (2S,5S)-3-[5-(4-Fluoro-phenyl)-1-(toluene-4-sulfonyl)-pyrrolidin-2-yl]-propan-1-ol] | 96

Other lines, results leading:

melting point [°C] | SMILES
102 | Cc1ccc(S(=O)(=O)N2[C@@H](Cc3nc(C4CC4)no3)CC[C@H]2c2ccc(F)cc2)cc1 (racemic) [Example 95, (2RS,5SR)-3-Cyclopropyl-5-[5-(4-fluoro-phenyl)-1-(toluene-4-sulfonyl)-pyrrolidin-2-ylmethyl]-[1,2,4]oxadiazole]
103 | Cc1ccc(S(=O)(=O)N2[C@@H](Cc3nc(C)no3)CC[C@H]2c2ccc(F)cc2)cc1 (racemic) [Example 96, (2RS,5SR)-5-[5-(4-Fluoro-phenyl)-1-(toluene-4-sulfonyl)-pyrrolidin-2-ylmethyl]-3-methyl-[1,2,4]oxadiazole]
129 | Cc1ccc(S(=O)(=O)N2[C@@H](CCO)CC[C@H]2c2ccc(F)cc2)cc1 (racemic) [Example 98, (2RS,5SR)-2-[5-(4-Fluoro-phenyl)-1-(toluene-4-sulfonyl)-pyrrolidin-2-yl]-ethanol]
121 | Cc1ccc(S(=O)(=O)N2[C@@H](CCn3cccn3)CC[C@H]2c2ccc(F)cc2)cc1 (racemic) [Example 100, (2RS,5SR)-1-{2-[5-(4-Fluoro-phenyl)-1-(toluene-4-sulfonyl)-pyrrolidin-2-yl]-ethyl}-1H-pyrazole]
138 | Cc1ccc(S(=O)(=O)N2[C@@H](CCc3nnco3)CC[C@H]2c2ccc(F)cc2)cc1 (racemic) [Example 127, (2RS,5SR)-2-{2-[5-(4-Fluoro-phenyl)-1-(toluene-4-sulfonyl)-pyrrolidin-2-yl]-ethyl}-[1,3,4]oxadiazole]
